Test results from patent US7601716B2, “Pyridopyrazines and derivatives thereof as ALK and c-Met inhibitors” (Cephalon, Inc., priority 2006, dated 2009).

Columns and labels:
[1] = molecular target: T1, c-Met (phospho-c-Met) in A549 cells (Homo sapiens, UniProt P08581); experiment: c-Met Cellular Activity/Autophosphorylation Assay, A549 cells (HGF stimulated); format: cell-based; conditions: 50 ng/mL HGF; for inhibition at 1 µM: 1 μM compound, read-out: c-Met autophosphorylation inhibition score, A549 Cells (1 μM); for inhibition at 3 µM: 3 μM compound, read-out: c-Met autophosphorylation inhibition score, A549 Cells (3 μM)
T1 construct: endogenous in cells; host or cells: HT29, A549 (HGF-stimulated), GTL-16
T1 sequence (P08581 25-1390): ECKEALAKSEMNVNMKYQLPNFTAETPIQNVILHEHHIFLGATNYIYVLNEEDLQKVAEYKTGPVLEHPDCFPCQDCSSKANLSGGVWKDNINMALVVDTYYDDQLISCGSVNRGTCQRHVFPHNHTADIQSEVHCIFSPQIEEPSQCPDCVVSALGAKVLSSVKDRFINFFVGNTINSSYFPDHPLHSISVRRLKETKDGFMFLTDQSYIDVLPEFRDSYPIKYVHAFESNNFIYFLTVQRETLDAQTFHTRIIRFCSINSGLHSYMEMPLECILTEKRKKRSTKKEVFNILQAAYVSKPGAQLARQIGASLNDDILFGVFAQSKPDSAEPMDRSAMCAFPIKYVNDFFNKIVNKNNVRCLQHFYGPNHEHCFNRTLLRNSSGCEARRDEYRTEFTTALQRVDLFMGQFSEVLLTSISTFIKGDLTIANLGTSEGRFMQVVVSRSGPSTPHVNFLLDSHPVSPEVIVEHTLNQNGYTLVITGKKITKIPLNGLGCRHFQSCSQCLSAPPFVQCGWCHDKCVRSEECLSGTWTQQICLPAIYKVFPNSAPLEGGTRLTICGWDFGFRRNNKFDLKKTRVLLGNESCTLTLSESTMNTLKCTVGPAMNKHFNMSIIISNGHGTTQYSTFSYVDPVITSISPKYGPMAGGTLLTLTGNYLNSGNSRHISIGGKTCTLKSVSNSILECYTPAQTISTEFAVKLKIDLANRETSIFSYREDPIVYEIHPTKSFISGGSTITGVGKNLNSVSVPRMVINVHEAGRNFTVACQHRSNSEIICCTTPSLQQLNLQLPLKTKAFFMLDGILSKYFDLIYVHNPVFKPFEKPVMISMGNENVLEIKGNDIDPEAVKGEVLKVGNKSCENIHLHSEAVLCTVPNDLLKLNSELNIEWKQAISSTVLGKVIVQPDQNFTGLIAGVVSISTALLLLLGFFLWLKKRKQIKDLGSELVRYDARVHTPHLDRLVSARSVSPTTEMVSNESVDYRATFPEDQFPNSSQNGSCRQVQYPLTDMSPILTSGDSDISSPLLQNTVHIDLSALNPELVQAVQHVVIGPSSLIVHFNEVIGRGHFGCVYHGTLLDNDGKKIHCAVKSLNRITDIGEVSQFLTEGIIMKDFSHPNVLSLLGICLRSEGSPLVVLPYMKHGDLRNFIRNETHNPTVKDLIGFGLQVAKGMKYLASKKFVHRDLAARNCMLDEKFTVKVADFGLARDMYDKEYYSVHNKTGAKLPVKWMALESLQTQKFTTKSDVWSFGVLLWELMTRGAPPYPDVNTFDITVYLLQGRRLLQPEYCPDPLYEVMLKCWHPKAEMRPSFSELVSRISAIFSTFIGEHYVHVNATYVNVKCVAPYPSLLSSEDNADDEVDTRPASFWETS
Method: (§1) HT29 and GTL-16 cells were serum starved for one hour in media containing 0.05% BSA and varying concentrations of Example compounds (1-10 μM). A549 cells were serum starved overnight in media containing 0.05% BSA then treated for one hour with Example compounds followed by a 15 minute stimulation with 50 ng/mL HGF (Peprotech, Rocky Hill, N.J.), respectively. Samples were resolved by electrophoresis on a 3-8% Tris-Acetate gel (40 ma/gel) and then transferred to a nitrocellulose membrane. Membranes were blocked for one hour at room temperature in Odyssey Blocking Buffer (Licor #927-40000) diluted 1:1 with 1×TBS. Membranes were then co-incubated overnight at 4° C. with primary antibodies [total Met (Cell Signaling, #3127) and Phospho-Met (Biosource, #44-888G) 1:1000 each in Odyssey Blocking Buffer diluted 1:1 with 1×TBS-T 0.05%]. The next day, membranes were washed and co-incubated with secondary antibodies [Goat anti mouse IRDye800 (Rockland, #610-132-121) and Goat anti rabbit Alexa fluor 700 (Molecular Probes, #A21038) 1:10,000] in Odyssey Blocking Buffer diluted 1:1 with 1×TBS-T 0.05% for one hour at room temperature protected from light. Blots were then washed and read on the Odyssey Infrared Imager. Total c-Met signal was visualized at 800 nm detection and phospho-c-Met signal was visualized at 700 nm detection.

[2] = molecular target: T2, c-Met (cytoplasmic domain) (Homo sapiens, UniProt P08581); experiment: c-Met Kinase Assay (ELISA/TRF, PLC-γ substrate); format: biochemical; conditions: 3 μM ATP (Km level); read-out: c-Met Kinase Inhibition (IC50)
T2 construct: Reactions were initiated with 30 ng/mL c-Met (cytoplasmic domain, Invitrogen Corporation #PV3143); purchased Invitrogen Corporation PV3143
T2 sequence (P08581 956-1390 limits assumed): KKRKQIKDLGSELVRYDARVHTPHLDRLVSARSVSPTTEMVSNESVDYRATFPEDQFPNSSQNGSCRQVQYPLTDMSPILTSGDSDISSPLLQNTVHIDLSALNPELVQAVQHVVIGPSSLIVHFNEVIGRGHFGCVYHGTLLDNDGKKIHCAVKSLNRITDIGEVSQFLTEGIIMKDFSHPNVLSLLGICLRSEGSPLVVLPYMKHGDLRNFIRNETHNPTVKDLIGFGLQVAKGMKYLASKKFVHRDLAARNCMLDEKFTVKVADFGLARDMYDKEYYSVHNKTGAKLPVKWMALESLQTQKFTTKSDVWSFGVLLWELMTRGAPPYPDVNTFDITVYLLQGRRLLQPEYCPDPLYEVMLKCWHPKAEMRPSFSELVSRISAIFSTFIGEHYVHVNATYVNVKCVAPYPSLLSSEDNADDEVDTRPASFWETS
Summary of the method: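 c-Met cytoplasmic domain (30 ng/mL) phosphorylates plate-coated GST–PLC-γ for 15 min at 37 °C. Phosphotyrosine detected with Eu-labeled PT66 antibody by time-resolved fluorescence. IC50 from variable-slope sigmoidal fit of % inhibition vs log concentration.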

[3] = molecular target: T3, c-Met (phospho-c-Met) in HT29 cells (Homo sapiens, UniProt P08581); experiment: c-Met Cellular Activity/Autophosphorylation Assay, HT29 cells; format: cell-based; conditions: for inhibition at 1 µM: HT-29, 1 μM compound, read-out: c-Met autophosphorylation inhibition score, HT29 Cells (1 μM); for inhibition at 3 µM: HT-29, 3 μM compound, read-out: c-Met autophosphorylation inhibition score, HT29 Cells (3 μM)
T3 construct: endogenous in cells; host or cells: HT29, A549 (HGF-stimulated), GTL-16
T3 sequence (P08581 25-1390): as the sequence (P08581 25-1390) above
Method: as §1

[4] = molecular target: baculovirus-expressed ALK (Homo sapiens, UniProt Q9UM73); experiment: ALK Kinase Assay (ELISA/TRF, PLC-γ substrate); format: biochemical; conditions: read-out: ALK Kinase Inhibition (IC50); further: 1 µM ATP (Km level)
Chain of baculovirus-expressed ALK (Q9UM73 19-1620): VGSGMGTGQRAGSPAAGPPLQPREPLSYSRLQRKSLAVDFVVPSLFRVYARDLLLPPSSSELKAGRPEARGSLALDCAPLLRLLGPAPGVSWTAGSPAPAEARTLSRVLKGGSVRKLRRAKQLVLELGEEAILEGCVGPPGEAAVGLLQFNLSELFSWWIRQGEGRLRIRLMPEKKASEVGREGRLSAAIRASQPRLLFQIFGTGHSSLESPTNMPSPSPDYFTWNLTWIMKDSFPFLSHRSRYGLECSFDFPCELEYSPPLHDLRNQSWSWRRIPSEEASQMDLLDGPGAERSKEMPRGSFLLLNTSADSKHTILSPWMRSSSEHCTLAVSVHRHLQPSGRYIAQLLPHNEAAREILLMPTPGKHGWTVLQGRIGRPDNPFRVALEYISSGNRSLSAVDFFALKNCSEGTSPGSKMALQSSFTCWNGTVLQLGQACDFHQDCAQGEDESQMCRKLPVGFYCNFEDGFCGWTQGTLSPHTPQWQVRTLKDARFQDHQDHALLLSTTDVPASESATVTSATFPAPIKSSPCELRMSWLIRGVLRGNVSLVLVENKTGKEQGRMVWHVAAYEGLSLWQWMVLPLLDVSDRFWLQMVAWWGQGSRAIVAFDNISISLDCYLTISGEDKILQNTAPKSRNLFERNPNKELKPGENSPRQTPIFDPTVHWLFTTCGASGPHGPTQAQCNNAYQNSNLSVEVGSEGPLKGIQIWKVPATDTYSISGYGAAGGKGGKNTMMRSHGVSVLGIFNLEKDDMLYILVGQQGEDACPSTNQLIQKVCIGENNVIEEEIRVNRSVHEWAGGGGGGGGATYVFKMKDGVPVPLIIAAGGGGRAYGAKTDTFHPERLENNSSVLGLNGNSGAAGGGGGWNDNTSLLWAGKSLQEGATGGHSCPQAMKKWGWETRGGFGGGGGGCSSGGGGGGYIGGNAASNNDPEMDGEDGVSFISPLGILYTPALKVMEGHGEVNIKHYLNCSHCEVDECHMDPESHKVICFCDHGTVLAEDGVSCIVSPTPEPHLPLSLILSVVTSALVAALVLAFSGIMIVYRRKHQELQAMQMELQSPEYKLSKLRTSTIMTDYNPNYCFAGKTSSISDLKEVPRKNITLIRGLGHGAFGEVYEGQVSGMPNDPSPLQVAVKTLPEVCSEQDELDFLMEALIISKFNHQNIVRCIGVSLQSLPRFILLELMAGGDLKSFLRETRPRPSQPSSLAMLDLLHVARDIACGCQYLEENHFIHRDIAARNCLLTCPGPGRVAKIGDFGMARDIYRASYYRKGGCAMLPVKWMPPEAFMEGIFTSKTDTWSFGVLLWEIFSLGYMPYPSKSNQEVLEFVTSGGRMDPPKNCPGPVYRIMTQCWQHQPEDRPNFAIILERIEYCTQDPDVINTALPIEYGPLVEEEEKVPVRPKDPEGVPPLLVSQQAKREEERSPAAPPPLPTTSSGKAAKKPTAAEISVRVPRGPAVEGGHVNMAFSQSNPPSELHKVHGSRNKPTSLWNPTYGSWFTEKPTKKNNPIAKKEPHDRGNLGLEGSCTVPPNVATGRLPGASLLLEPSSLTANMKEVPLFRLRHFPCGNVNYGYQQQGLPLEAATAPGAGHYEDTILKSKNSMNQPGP
Summary of the method: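 Plates coated with GST-PLC-γ substrate (10 µg/mL in TBS), then reaction started with 30 ng/ml baculovirus-expressed ALK, 15 min at 37 °C. Phosphotyrosine detected by Eu-labeled PT66 antibody and time-resolved fluorescence. IC50 from variable-slope sigmoidal fit of percent inhibition versus log concentration.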

SMILES | inhibition at 1 µM [1] [%] | inhibition at 3 µM [1] [%] | IC50 [2] [µM] | inhibition at 1 µM [3] [%] | inhibition at 3 µM [3] [%] | IC50 [4] [µM] | melting point
Fc1ccc(F)c(CN2CCNc3ncc(-c4ccnc(N5CCOCC5)c4F)cc32)c1Cl [Example 102, 1-(2-Chloro-3,6-difluorobenzyl)-7-(3-fluoro-2-morpholin-4-yl-pyridin-4-yl)-1,2,3,4-tetrahydropyrido[2,3-b]pyrazine] | 0 to 25 | 26 to 50 | 1 to 10 | 26 to 50 | 51 to 75 | 0.1 to 1 | –
CN1CCN(c2ccc(-c3cnc4c(c3)N(Cc3cc(Cl)ccc3C(F)(F)F)CCN4)cn2)CC1 [Example 118, 1-(5-Chloro-2-trifluoromethylbenzyl)-7-[6-(4-methylpiperazin-1-yl)pyridin-3-yl]-1,2,3,4-tetrahydropyrido[2,3-b]pyrazine] | 0 to 25 | 26 to 50 | – | 26 to 50 | 51 to 75 | – | –
CN1CCN(c2ccc(-c3cnc4c(c3)N(Cc3cc(C(F)(F)F)ccc3Cl)CCN4)cn2)CC1 [Example 120, 1-(2-Chloro-5-trifluoromethylbenzyl)-7-[6-(4-methylpiperazin-1-yl)pyridin-3-yl]-1,2,3,4-tetrahydropyrido[2,3-b]pyrazine] | 0 to 25 | 26 to 50 | 1 to 10 | 26 to 50 | 26 to 50 | 0.1 to 1 | –
CN1CCN(c2ccc(-c3cnc4c(c3)N(S(=O)(=O)c3cc(F)ccc3F)CCN4)cn2)CC1 [Example 122, 1-(2,5-Difluorobenzenesulfonyl)-7-[6-(4-methylpiperazin-1-yl)pyridin-3-yl]-1,2,3,4-tetrahydropyrido[2,3-b]pyrazine] | 0 to 25 | 26 to 50 | 1 to 10 | 26 to 50 | 26 to 50 | 0.1 to 1 | –
CC(C)(C)OC(=O)NCC#Cc1cnc2c(c1)N(Cc1cc(Cl)ccc1Cl)CCN2 [Example 168, {3-[1-(2,5-Dichlorobenzyl)-1,2,3,4-tetrahydropyrido[2,3-b]pyrazin-7-yl]prop-2-ynyl}carbamic acid tert-butyl ester] | 0 to 25 | 0 to 25 | 10 to 100 | 0 to 25 | 26 to 50 | 1 to 10 | –
Nc1ccc(-c2cnc3c(c2)N(Cc2c(F)ccc(F)c2Cl)CCN3)cn1 [Example 184, 5-[1-(2-Chloro-3,6-difluorobenzyl)-1,2,3,4-tetrahydropyrido[2,3-b]pyrazin-7-yl]-pyridin-2-ylamine] | – | – | 1 to 10 | 51 to 75 | 76 to 100 | < 0.1 | > 200 °C
Fc1ccc(F)c(/C=C2/CCNc3nc(Br)ccc32)c1 [Example 283, 7-Bromo-4-[1-(2,5-difluorophenyl)methylidene]-1,2,3,4-tetrahydro-[1,8]naphthyridine] | – | – | > 100 | – | – | > 100 | 178 to 179 °C
N#Cc1c(F)ccc(F)c1CN1CCNc2ncc(-c3ccc(N4CCOCC4)nc3)cc21 [Example 289, 3,6-Difluoro-2-[7-(6-morpholin-4-yl-pyridin-3-yl)-3,4-dihydro-2H-pyrido[2,3-b]pyrazin-1-ylmethyl]benzonitrile] | – | – | 0.1 to 1 | – | – | < 0.1 | 188 to 190 °C
O=C1CNc2ncc(I)cc2N1Cc1ccc(C(F)(F)F)o1 [Example 290, 7-Iodo-1-[5-(trifluoromethyl)furan-2-ylmethyl]-3,4-dihydro-1H-pyrido[2,3-b]pyrazin-2-one] | – | – | > 100 | – | – | 10 to 100 | 189 to 191 °C
FC(F)(F)c1ccc(CN2CCNc3ncc(I)cc32)o1 [Example 291, 7-Iodo-1-[5-(trifluoromethyl)furan-2-ylmethyl]-1,2,3,4-tetrahydropyrido[2,3-b]pyrazine] | – | – | > 100 | – | – | 10 to 100 | 153 to 154 °C
O=C1CNc2ncc(I)cc2N1Cc1cccnc1Cl [Example 299, 1-(2-Chloropyridin-3-ylmethyl)-7-iodo-3,4-dihydro-1H-pyrido[2,3-b]pyrazin-2-one] | – | – | > 100 | – | – | 1 to 10 | 249 °C
CN1CCN(c2ccc(-c3cnc4c(c3)N(Cc3c(F)ccc(F)c3Cl)CC(=O)N4)cn2)CC1 [Example 437, 1-(2-Chloro-3,6-difluorobenzyl)-7-[6-(4-methylpiperazin-1-yl)pyridin-3-yl]-1,4-dihydro-2H-pyrido[2,3-b]pyrazin-3-one] | – | – | 1 to 10 | – | – | 0.1 to 1 | 235 to 236 °C (dec.)

Further lines, results first:

inhibition at 1 µM [1] [%] | inhibition at 3 µM [1] [%] | IC50 [2] [µM] | inhibition at 1 µM [3] [%] | inhibition at 3 µM [3] [%] | IC50 [4] [µM] | melting point | SMILES
0 to 25 | 0 to 25 | 1 to 10 | 26 to 50 | 26 to 50 | 0.1 to 1 | 240 °C (dec.) | O=C(O)c1ccc(-c2cnc3c(c2)N(Cc2cc(F)ccc2F)CCN3)cn1 [Example 72, 5-[1-(2,5-Difluorobenzyl)-1,2,3,4-tetrahydropyrido[2,3-b]pyrazin-7-yl]-pyridine-2-carboxylic acid]
– | – | 0.1 to 1 | 0 to 25 | 51 to 75 | < 0.1 | – | CN1CCN(C(=O)c2ccc(-c3cnc4c(c3)N(Cc3c(F)ccc(F)c3Cl)CCN4)cc2)CC1 [Example 104, {4-[1-(2-Chloro-3,6-difluorobenzyl)-1,2,3,4-tetrahydropyrido[2,3-b]pyrazin-7-yl]phenyl}-(4-methylpiperazin-1-yl)methanone]
0 to 25 | 0 to 25 | 0.1 to 1 | 0 to 25 | 26 to 50 | < 0.1 | – | O=C(c1ccc(-c2cnc3c(c2)N(Cc2cc(Cl)ccc2C(F)(F)F)CCN3)cc1)N1CCC(N2CCOCC2)CC1 [Example 287, (4-{1-[5-Chloro-2-(trifluoromethyl)benzyl]-1,2,3,4-tetrahydropyrido[2,3-b]pyrazin-7-yl}phenyl)-(4-morpholin-4-yl-piperidin-1-yl)methanone]
– | – | 10 to 100 | – | – | 0.1 to 1 | 243 to 244 °C | O=C(c1ccc(-c2cnc3c(c2)N(Cc2cc(Cl)ccc2C(F)(F)F)CCN3)cc1)N1CCN(c2nccs2)CC1 [Example 288, (4-{1-[5-Chloro-2-(trifluoromethyl)benzyl]-1,2,3,4-tetrahydropyrido[2,3-b]pyrazin-7-yl}phenyl)-(4-thiazol-2-yl-piperazin-1-yl)methanone]
– | – | 10 to 100 | – | – | 10 to 100 | 235 °C | O=C1CNc2ncc(I)cc2N1Cc1ccccc1OC(F)(F)F [Example 294, 7-Iodo-1-[2-(trifluoromethoxy)benzyl]-3,4-dihydro-1H-pyrido[2,3-b]pyrazin-2-one]
– | – | > 100 | – | – | 1 to 10 | 153 °C | CCOC(=O)c1ccc(-c2cnc3c(c2)N(Cc2ccccc2OC(F)(F)F)CCN3)cc1 [Example 297, 4-{1-[2-(Trifluoromethoxy)benzyl]-1,2,3,4-tetrahydropyrido[2,3-b]pyrazin-7-yl}benzoic acid ethyl ester]
– | – | > 100 | – | – | 1 to 10 | 250 °C | O=C(O)c1ccc(-c2cnc3c(c2)N(Cc2ccccc2OC(F)(F)F)CCN3)cc1 [Example 298, 4-{1-[2-(Trifluoromethoxy)benzyl]-1,2,3,4-tetrahydropyrido[2,3-b]pyrazin-7-yl}benzoic acid]
– | – | > 100 | – | – | 1 to 10 | 244 °C | CC(=O)Nc1ccc(-c2cnc3c(c2)N(Cc2cc(Cl)ccc2C(F)(F)F)CCN3)cc1 [Example 304, N-(4-{1-[5-Chloro-2-(trifluoromethyl)benzyl]-1,2,3,4-tetrahydropyrido[2,3-b]pyrazin-7-yl}phenyl)acetamide]
